Assay results reported in the NIST ThermoML archive (doi:10.1021/je300972a).

What was measured:
[1] = refractive index (Na D-line) (dimensionless); details: 101.33 kPa, Liquid, Standard Abbe refractometry
[2] = 101 kPa, Liquid; for viscosity: Falling or rolling sphere viscometry; for mass density: Vibrating tube method
[3] = refractive index (Na D-line) (dimensionless); xn = mol fraction of the nth substance listed; details: 101 kPa, Liquid, Standard Abbe refractometry, x1 = 1
[4] = xn = mol fraction of the nth substance listed; details: 101 kPa, Liquid, x1 = 1; for viscosity: Falling or rolling sphere viscometry; for mass density: Vibrating tube method

CCCC[n+]1ccc(C)cc1.O=S(=O)([N-]S(=O)(=O)C(F)(F)F)C(F)(F)F
Details | mass density, [2] [kg/m3] | refractive index, [1] | viscosity, [2] [mPa·s]
293.15 K | 1416.6 | 1.448 | 70.6
303.15 K | 1407.3 | 1.4449 | 45.2
313.15 K | 1398.1 | 1.4419 | 30.6
323.15 K | 1388.8 | 1.4388 | 21.8
333.15 K | 1379.7 | 1.4358 | 16.1
343.15 K | 1370.5 | 1.4328 | 12.3
353.15 K | 1361.5 | 1.4298 | 9.8

CCCC[n+]1ccccc1.F[B-](F)(F)F [1-butylpyridinium tetrafluoroborate]
Details | mass density, [2] [kg/m3] | refractive index, [1] | viscosity, [2] [mPa·s]
293.15 K | 1217.1 | 1.447 | 227.1
303.15 K | 1210.3 | 1.4444 | 123.6
313.15 K | 1203.5 | 1.4418 | 74.8
323.15 K | 1196.7 | 1.4392 | 48.1
333.15 K | 1189.9 | 1.4366 | 33
343.15 K | 1183.2 | 1.4341 | 23.8
353.15 K | 1176.5 | 1.4315 | 17.7

CCCC[n+]1ccccc1.F[B-](F)(F)F [1-butylpyridinium tetrafluoroborate] + CCCC[n+]1ccc(C)cc1.O=S(=O)([N-]S(=O)(=O)C(F)(F)F)C(F)(F)F
Details | mass density, [4] [kg/m3] | refractive index, [3] | viscosity, [4] [mPa·s]
293.15 K | 1217.1 | 1.447 | 227.1
303.15 K | 1210.3 | 1.4444 | 123.6
313.15 K | 1203.5 | 1.4418 | 74.8
323.15 K | 1196.7 | 1.4392 | 48.1
333.15 K | 1189.9 | 1.4366 | 33
343.15 K | 1183.2 | 1.4341 | 23.8
353.15 K | 1176.5 | 1.4315 | 17.7
